In patent US20160271263A1 (Novo Nordisk A/S, priority 2010, published 2016):
Numbered stars: 1 amine (or outer) side, 2 acyl side, 3 side chain; on linkers, the order of the positions; unused ones are H or OH. Side chains are listed from the residue outwards. Peptide text beside a SMILES is read from it. * marks the point of attachment. C18 diacid = O=C(O)CCCCCCCCCCCCCCCCC(=O)*; γGlu = O=C(O)[C@H](CCC(=O)[*:2])N[*:1]; AEEA = NCCOCCOCC(=O)O

The compounds below were run against glucagon receptor (Homo sapiens, UniProt P47871) (assay: cell-based).
glucagon receptor, sequence (P47871 26-477): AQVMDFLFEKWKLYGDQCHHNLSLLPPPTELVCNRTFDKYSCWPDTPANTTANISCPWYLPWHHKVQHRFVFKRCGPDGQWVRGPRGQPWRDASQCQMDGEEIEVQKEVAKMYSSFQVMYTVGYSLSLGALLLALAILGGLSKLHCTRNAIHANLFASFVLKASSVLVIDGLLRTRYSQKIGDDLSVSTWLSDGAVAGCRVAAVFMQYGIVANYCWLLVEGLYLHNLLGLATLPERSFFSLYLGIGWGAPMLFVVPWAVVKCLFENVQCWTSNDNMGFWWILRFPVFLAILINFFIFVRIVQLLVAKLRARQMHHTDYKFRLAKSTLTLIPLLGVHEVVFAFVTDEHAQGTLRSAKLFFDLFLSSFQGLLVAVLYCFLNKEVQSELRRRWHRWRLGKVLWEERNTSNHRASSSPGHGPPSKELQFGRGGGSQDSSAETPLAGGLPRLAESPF
For `CC(C)C[C@H](NC(=O)[C@H](Cc1ccc(O)cc1)NC(=O)[C@H](CCCCN)NC(=O)[C@H](CO)NC(=O)[C@H](Cc1ccc(O)cc1)NC(=O)[C@H](CC(=O)O)NC(=O)[C@H](CO)NC(=O)[C@@H](NC(=O)[C@H](Cc1ccccc1)NC(=O)[C@@H](NC(=O)CNC(=O)[C@H](CCC(N)=O)NC(=O)[C@H](CO)NC(=O)[C@@H](N)Cc1c[nH]cn1)[C@@H](C)O)[C@@H](C)O)C(=O)N[C@@H](CC(=O)O)C(=O)N[C@@H](CO)C(=O)N[C@@H](CCCNC(=N)N)C(=O)N[C@@H](CCCNC(=N)N)C(=O)N[C@@H](C)C(=O)N[C@@H](CCC(N)=O)C(=O)N[C@@H](CC(=O)O)C(=O)N[C@@H](Cc1ccccc1)C(=O)N[C@H](C(=O)N[C@@H](CCCCNC(=O)COCCOCCNC(=O)COCCOCCNC(=O)CC[C@H](NC(=O)CCCCCCCCCCCCCCCCC(=O)O)C(=O)O)C(=O)N[C@@H](Cc1c[nH]c2ccccc12)C(=O)N[C@@H](CC(C)C)C(=O)N[C@@H](CC(C)C)C(=O)N[C@H](C(=O)N[C@H](C(=O)O)[C@@H](C)O)[C@@H](C)O)C(C)C` [Example 15], the EC50 was 0.024 nM.
`CC(C)C[C@H](NC(=O)[C@H](Cc1ccc(O)cc1)NC(=O)[C@H](CCCCN)NC(=O)[C@H](CO)NC(=O)[C@H](Cc1ccc(O)cc1)NC(=O)[C@H](CC(=O)O)NC(=O)[C@H](CO)NC(=O)[C@@H](NC(=O)[C@H](Cc1ccccc1)NC(=O)[C@@H](NC(=O)CNC(=O)[C@H](CCC(N)=O)NC(=O)[C@H](CO)NC(=O)[C@@H](N)Cc1c[nH]cn1)[C@@H](C)O)[C@@H](C)O)C(=O)N[C@@H](CC(=O)O)C(=O)N[C@@H](CCCCNC(=O)COCCOCCNC(=O)COCCOCCNC(=O)CC[C@H](NC(=O)CCCCCCCCCCCCCCCCC(=O)O)C(=O)O)C(=O)N[C@@H](CCCNC(=N)N)C(=O)N[C@@H](CCCNC(=N)N)C(=O)N[C@@H](C)C(=O)N[C@@H](CCC(N)=O)C(=O)N[C@@H](CC(=O)O)C(=O)N[C@@H](Cc1ccccc1)C(=O)N[C@H](C(=O)N[C@@H](CCC(N)=O)C(=O)N[C@@H](Cc1c[nH]c2ccccc12)C(=O)N[C@@H](CC(C)C)C(=O)N[C@@H](CC(C)C)C(=O)N[C@@H](CC(N)=O)C(=O)N[C@H](C(=O)O)[C@@H](C)O)C(C)C` [Example 17] (H-HSQGTFTSDYSKYLDK([AEEA-AEEA-γGlu-C18 diacid])RRAQDFVQWLLNT-OH; N-terminus and C-terminus assumed) was tested, and the EC50 was 0.003 nM.
`CC(C)C[C@H](NC(=O)[C@H](Cc1ccc(O)cc1)NC(=O)[C@H](CCCCN)NC(=O)[C@H](CO)NC(=O)[C@H](Cc1ccc(O)cc1)NC(=O)[C@H](CC(=O)O)NC(=O)[C@H](CO)NC(=O)[C@@H](NC(=O)[C@H](Cc1ccccc1)NC(=O)[C@@H](NC(=O)CNC(=O)[C@H](CCC(N)=O)NC(=O)[C@H](CO)NC(=O)[C@@H](N)Cc1c[nH]cn1)[C@@H](C)O)[C@@H](C)O)C(=O)N[C@@H](CC(=O)O)C(=O)N[C@@H](CO)C(=O)N[C@@H](CCCNC(=N)N)C(=O)N[C@@H](CCCCNC(=O)COCCOCCNC(=O)COCCOCCNC(=O)CC[C@H](NC(=O)CCCCCCCCCCCCCCCCC(=O)O)C(=O)O)C(=O)N[C@@H](C)C(=O)N[C@@H](CCC(N)=O)C(=O)N[C@@H](CC(=O)O)C(=O)N[C@@H](Cc1ccccc1)C(=O)N[C@H](C(=O)N[C@@H](CCC(N)=O)C(=O)N[C@@H](Cc1c[nH]c2ccccc12)C(=O)N[C@@H](CC(C)C)C(=O)N[C@@H](CC(C)C)C(=O)N[C@@H](CC(N)=O)C(=O)N[C@H](C(=O)O)[C@@H](C)O)C(C)C` [Example 18] (H-HSQGTFTSDYSKYLDSRK([AEEA-AEEA-γGlu-C18 diacid])AQDFVQWLLNT-OH; N-terminus and C-terminus assumed) showed an EC50 of 0.206 nM.
